Assay results taken from patent US10005767B2, “Compositions and methods for inhibition of the JAK pathway” (Rigel Pharmaceuticals, Inc., priority 2009, dated 2018).
pIC50: −log10 of the molar value.

tested on: human primary T-cells, IL-2 stimulated proliferation (JAK-1 and JAK-3 dependent; reported as JAK3 activity); assay: Human primary T-cell proliferation stimulated by IL-2 (Example 3); format: cell-based; details: Homo sapiens, T-cell, tested under conditions described in Example 3 (IL-2 stimulated human primary T-cell proliferation); read-out: ability to inhibit JAK3 activity, IC50 range (Table V)
In short: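 Peripheral-blood human T-cells pre-activated via TCR/CD28, IL-2-starved overnight, then cultured 72 h at 37 °C with compound in Yssel's medium containing IL-2 (80 U/mL in cell suspension). Proliferation read as viable-cell ATP by CellTiter-Glo luminescence; reduction versus control taken as JAK pathway inhibition.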

Compared with `Cc1cnc(Nc2cnc(C3CC4CCC(C3)N4)c(C)c2)nc1Nc1ccc2oc(=O)[nH]c2c1` (stereo not shown) [II-66, 5-(2-(6-(8-aza-bicyclo[3.2.1]octan-3-yl)-5-methylpyridin-3-ylamino)-5-methylpyrimidin-4-ylamino)benzo[d]oxazol-2(3H)-one], `COC(=O)N1C2CCC1CC(c1ncc(Nc3ncc(C)c(Nc4ccc5oc(=O)[nH]c5c4)n3)cc1C)C2` (stereo not shown) [II-68, methyl 3-(3-methyl-5-(5-methyl-4-(2-oxo-2,3-dihydrobenzo[d]oxazol-5-ylamino)pyrimidin-2-ylamino)pyridin-2-yl)-8-azabicyclo[3.2.1]octane-8-carboxylate] is higher in pIC50: 5.30 to 6.30 for the first, over 6.30 for the second. The second is the more potent here.

`Cc1cnc(Nc2cnc(C3CC4CCC(C3)N4CC3CC3)c(C)c2)nc1Nc1ccc2oc(=O)[nH]c2c1` (stereo not shown) [II-67, 5-(2-(6-(8-(cyclopropylmethyl)-8-aza-bicyclo[3.2.1]octan-3-yl)-5-methylpyridin-3-ylamino)-5-methylpyrimidin-4-ylamino)benzo[d]oxazol-2(3H)-one] and `Cc1cnc(Nc2cnc(C3CC4CCC(C3)N4C(=O)C(F)(F)F)c(C)c2)nc1Nc1ccc2oc(=O)[nH]c2c1` (stereo not shown) [II-69, 5-(5-methyl-2-(5-methyl-6-(8-(2,2,2-trifluoroacetyl)-8-aza-bicyclo[3.2.1]octan-3-yl)pyridin-3-ylamino)pyrimidin-4-ylamino)benzo[d]oxazol-2(3H)-one] cannot be ordered by pIC50: over 6.30 for the first, over 6.30 for the second.

`Cc1cnc(Nc2ccc(N3CCN(C(C)C)[C@H](C)C3)nc2)nc1Nc1ccc2oc(=O)[nH]c2c1` [II-70, (R)-5-(2-(6-(4-isopropyl-3-methylpiperazin-1-yl)pyridin-3-ylamino)-5-methylpyrimidin-4-ylamino)benzo[d]oxazol-2(3H)-one] and `Cc1cnc(Nc2ccc(N3CCC(N(C)C)C3)nc2)nc1Nc1ccc2oc(=O)[nH]c2c1` (stereo not shown) [II-80, 5-(2-(6-(3-(dimethylamino)pyrrolidin-1-yl)pyridin-3-ylamino)-5-methylpyrimidin-4-ylamino)benzo[d]oxazol-2(3H)-one] cannot be ordered by pIC50: over 6.30 for the first, over 6.30 for the second.

`Cc1cnc(Nc2ccc(N3CCCC3)nc2)nc1Nc1ccc2oc(=O)[nH]c2c1` [II-71, 5-(5-methyl-2-(6-(pyrrolidin-1-yl)pyridin-3-ylamino)pyrimidin-4-ylamino)benzo[d]oxazol-2(3H)-one] and `CN[C@@H]1CCCN(c2ccc(Nc3ncc(C)c(Nc4ccc5oc(=O)[nH]c5c4)n3)cn2)C1` [II-88, (R)-5-(5-methyl-2-(6-(3-(methylamino)piperidin-1-yl)pyridin-3-ylamino)pyrimidin-4-ylamino)benzo[d]oxazol-2(3H)-one] cannot be ordered by pIC50: over 6.30 for the first, over 6.30 for the second.

`Cc1cnc(Nc2ccc(N3CCN(C)CC3)nc2)nc1Nc1cc(C)c2oc(=O)[nH]c2c1` [II-72, 7-methyl-5-(5-methyl-2-(6-(4-methylpiperazin-1-yl)pyridin-3-ylamino)pyrimidin-4-ylamino)benzo[d]oxazol-2(3H)-one] and `Cc1cnc(Nc2ccc(N3CCN(C)CC3)nc2)nc1Nc1cc(F)c2oc(=O)[nH]c2c1` [II-75, 7-fluoro-5-(5-methyl-2-(6-(4-methylpiperazin-1-yl)pyridin-3-ylamino)pyrimidin-4-ylamino)benzo[d]oxazol-2(3H)-one] cannot be ordered by pIC50: over 6.30 for the first, over 6.30 for the second.

`Cc1cnc(Nc2ccc(N3CCOCC3)nc2)nc1Nc1cc(C)c2oc(=O)[nH]c2c1` [II-73, 7-methyl-5-(5-methyl-2-(6-morpholinopyridin-3-ylamino)pyrimidin-4-ylamino)benzo[d]oxazol-2(3H)-one] and `Cc1cnc(Nc2ccc(N3CCOCC3)nc2)nc1Nc1cc(F)c2oc(=O)[nH]c2c1` [II-76, 7-fluoro-5-(5-methyl-2-(6-morpholinopyridin-3-ylamino)pyrimidin-4-ylamino)benzo[d]oxazol-2(3H)-one] cannot be ordered by pIC50: over 6.30 for the first, over 6.30 for the second.

`Cc1cnc(Nc2ccc(NCC3CC3)nc2)nc1Nc1ccc2oc(=O)[nH]c2c1` [II-74, 5-(2-(6-(cyclopropylmethylamino)pyridin-3-ylamino)-5-methylpyrimidin-4-ylamino)benzo[d]oxazol-2(3H)-one] and `Cc1cnc(Nc2ccc(NS(C)(=O)=O)nc2)nc1Nc1ccc2oc(=O)[nH]c2c1` [II-78, N-(5-(5-methyl-4-(2-oxo-2,3-dihydrobenzo[d]oxazol-5-ylamino)pyrimidin-2-ylamino)pyridin-2-yl)methanesulfonamide] cannot be ordered by pIC50: over 6.30 for the first, over 6.30 for the second.

First: Cc1cnc(Nc2cncc(Br)c2)nc1Nc1ccc2oc(=O)[nH]c2c1 [II-77, 5-(2-(5-bromopyridin-3-ylamino)-5-methylpyrimidin-4-ylamino)benzo[d]oxazol-2(3H)-one]
Second: Cc1cnc(Nc2ccc(N3CC[C@@H](N(C)C)C3)nc2)nc1Nc1ccc2oc(=O)[nH]c2c1 [II-89, (R)-5-(2-(6-(3-(dimethylamino)pyrrolidin-1-yl)pyridin-3-ylamino)-5-methylpyrimidin-4-ylamino)benzo[d]oxazol-2(3H)-one]
The pIC50 of the first is lower: 5.30 to 6.30 for the first, over 6.30 for the second. The second is the more potent here.

`Cc1cnc(Nc2ccc(NS(C)(=O)=O)nc2)nc1Nc1ccc2oc(=O)n(C)c2c1` [II-79, N-(5-(5-methyl-4-(3-methyl-2-oxo-2,3-dihydrobenzo[d]oxazol-5-ylamino)pyrimidin-2-ylamino)pyridin-2-yl)methanesulfonamide] and `Cc1cnc(Nc2ccc(N3CCC(NS(C)(=O)=O)C3)nc2)nc1Nc1ccc2oc(=O)[nH]c2c1` (stereo not shown) [II-93, N-(1-(5-(5-methyl-4-(2-oxo-2,3-dihydrobenzo[d]oxazol-5-ylamino)pyrimidin-2-ylamino)pyridin-2-yl)pyrrolidin-3-yl)methanesulfonamide] cannot be ordered by pIC50: over 6.30 for the first, over 6.30 for the second.

`CC(=O)NC1CCN(c2ccc(Nc3ncc(C)c(Nc4ccc5oc(=O)[nH]c5c4)n3)cn2)C1` (stereo not shown) [II-81, N-(1-(5-(5-methyl-4-(2-oxo-2,3-dihydrobenzo[d]oxazol-5-ylamino)pyrimidin-2-ylamino)pyridin-2-yl)pyrrolidin-3-yl)acetamide] and `CCNC(=O)NC1CCN(c2ccc(Nc3ncc(C)c(Nc4ccc5oc(=O)[nH]c5c4)n3)cn2)C1` (stereo not shown) [II-96, 1-ethyl-3-(1-(5-(5-methyl-4-(2-oxo-2,3-dihydrobenzo[d]oxazol-5-ylamino)pyrimidin-2-ylamino)pyridin-2-yl)pyrrolidin-3-yl)urea] cannot be ordered by pIC50: over 6.30 for the first, over 6.30 for the second.

`CCN(CC)C1CCN(c2ccc(Nc3ncc(C)c(Nc4ccc5oc(=O)[nH]c5c4)n3)cn2)C1` (stereo not shown) [II-82, 5-(2-(6-(3-(diethylamino)pyrrolidin-1-yl)pyridin-3-ylamino)-5-methylpyrimidin-4-ylamino)benzo[d]oxazol-2(3H)-one] and `Cc1cnc(Nc2ccc(N3CC[C@H](N(C)C)C3)nc2)nc1Nc1ccc2oc(=O)[nH]c2c1` [II-90, (S)-5-(2-(6-(3-(dimethylamino)pyrrolidin-1-yl)pyridin-3-ylamino)-5-methylpyrimidin-4-ylamino)benzo[d]oxazol-2(3H)-one] cannot be ordered by pIC50: over 6.30 for the first, over 6.30 for the second.

`Cc1cnc(Nc2ccc(N3CCC(NC(=O)C(F)(F)F)C3)nc2)nc1Nc1ccc2oc(=O)[nH]c2c1` (stereo not shown) [II-83, 2,2,2-trifluoro-N-(1-(5-(5-methyl-4-(2-oxo-2,3-dihydrobenzo[d]oxazol-5-ylamino)pyrimidin-2-ylamino)pyridin-2-yl)pyrrolidin-3-yl)acetamide] and `Cc1cnc(Nc2ccc(N3CCC(NC(=O)OC(C)(C)C)C3)nc2)nc1Nc1ccc2oc(=O)[nH]c2c1` (stereo not shown) [II-86, tert-butyl 1-(5-(5-methyl-4-(2-oxo-2,3-dihydrobenzo[d]oxazol-5-ylamino)pyrimidin-2-ylamino)pyridin-2-yl)pyrrolidin-3-ylcarbamate] cannot be ordered by pIC50: over 6.30 for the first, over 6.30 for the second.

`Cc1cnc(Nc2ccc(N3CCC(N4CCOCC4)C3)nc2)nc1Nc1ccc2oc(=O)[nH]c2c1` (stereo not shown) [II-84, 5-(5-methyl-2-(6-(3-morpholinopyrrolidin-1-yl)pyridin-3-ylamino)pyrimidin-4-ylamino)benzo[d]oxazol-2(3H)-one] and `Cc1cnc(Nc2ccc(N3CCC(NCC4CC4)C3)nc2)nc1Nc1ccc2oc(=O)[nH]c2c1` (stereo not shown) [II-94, 5-(2-(6-(3-(cyclopropylmethylamino)pyrrolidin-1-yl)pyridin-3-ylamino)-5-methylpyrimidin-4-ylamino)benzo[d]oxazol-2(3H)-one] cannot be ordered by pIC50: over 6.30 for the first, over 6.30 for the second.

`CN1CCN(c2ccc(Nc3ncc(C(F)(F)F)c(Nc4ccc5oc(=O)[nH]c5c4)n3)cn2)CC1` [II-85, 5-(2-(6-(4-methylpiperazin-1-yl)pyridin-3-ylamino)-5-(trifluoromethyl)pyrimidin-4-ylamino)benzo[d]oxazol-2(3H)-one] and `Cc1cnc(Nc2ccc(N3CCC[C@H](N(C)C(=O)OC(C)(C)C)C3)nc2)nc1Nc1ccc2oc(=O)[nH]c2c1` [II-87, (S)-tert-butyl methyl(1-(5-(5-methyl-4-(2-oxo-2,3-dihydrobenzo[d]oxazol-5-ylamino)pyrimidin-2-ylamino)pyridin-2-yl)piperidin-3-yl)carbamate] cannot be ordered by pIC50: over 6.30 for the first, over 6.30 for the second.

`Cc1cnc(Nc2ccc(N3CCC[C@@H](N(C)C(=O)OC(C)(C)C)C3)nc2)nc1Nc1ccc2oc(=O)[nH]c2c1` [II-91, (R)-tert-butyl methyl(1-(5-(5-methyl-4-(2-oxo-2,3-dihydrobenzo[d]oxazol-5-ylamino)pyrimidin-2-ylamino)pyridin-2-yl)piperidin-3-yl)carbamate] and `Cc1cnc(Nc2ccc(N3CCC(NC(=O)NC(C)(C)C)C3)nc2)nc1Nc1ccc2oc(=O)[nH]c2c1` (stereo not shown) [II-97, 1-tert-butyl-3-(1-(5-(5-methyl-4-(2-oxo-2,3-dihydrobenzo[d]oxazol-5-ylamino)pyrimidin-2-ylamino)pyridin-2-yl)pyrrolidin-3-yl)urea] cannot be ordered by pIC50: over 6.30 for the first, over 6.30 for the second.

`Cc1cnc(Nc2ccc(N(C)[C@H]3CCCN(Cc4ccccc4)C3)nc2)nc1Nc1ccc2oc(=O)[nH]c2c1` [II-95, (S)-5-(2-(6-((1-benzylpiperidin-3-yl)(methyl)amino)pyridin-3-ylamino)-5-methylpyrimidin-4-ylamino)benzo[d]oxazol-2(3H)-one] was tested, and the pIC50 was over 6.30.
